Data reported in the kinase profiling compilation of Christmann-Franck et al. (2016).
“And” between values parts separate entries of the source, which are not always exact repeats. Identical values can stand only once.

How the values were obtained:
Test in all cases: radiometric filter-binding kinase assay, Kinase HotSpot
Details in all cases: compound 0.5 µM; ATP 10 µM
CDK7 CCNH MNAT1 (human) = CDK7 CCNH MNAT1 (human) (UniProt P50613+P51948+P51946)
MAP3K8 (human) = MAP3K8 (human) (UniProt P41279)
CDK9 CCNK (human) = CDK9 CCNK (human) (UniProt O75909+P50750)
LCK (human) = LCK (human) (UniProt P06239)
PAK3 (human) = PAK3 (human) (UniProt O75914)
PKN1 (human) = PKN1 (human) (UniProt Q16512)
PDGFRA (human) = PDGFRA (human) (UniProt P16234)
LYN (human) = LYN (human) (UniProt P07948)
Chain of LYN (human) (P07948 whole entry, looked up): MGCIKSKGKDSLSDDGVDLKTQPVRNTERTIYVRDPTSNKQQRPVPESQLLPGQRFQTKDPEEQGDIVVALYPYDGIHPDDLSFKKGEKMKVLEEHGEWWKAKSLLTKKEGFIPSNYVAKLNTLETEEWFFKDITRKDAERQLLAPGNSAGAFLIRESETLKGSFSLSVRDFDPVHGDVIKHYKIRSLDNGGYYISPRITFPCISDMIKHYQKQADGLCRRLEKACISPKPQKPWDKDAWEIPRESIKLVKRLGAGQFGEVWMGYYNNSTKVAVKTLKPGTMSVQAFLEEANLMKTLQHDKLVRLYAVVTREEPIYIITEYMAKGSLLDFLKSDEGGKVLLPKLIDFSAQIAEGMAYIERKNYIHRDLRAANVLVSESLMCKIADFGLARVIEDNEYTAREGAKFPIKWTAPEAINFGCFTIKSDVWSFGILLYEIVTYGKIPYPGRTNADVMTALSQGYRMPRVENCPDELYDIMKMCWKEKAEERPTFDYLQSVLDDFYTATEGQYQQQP

NUAK2 (human) = NUAK2 (human) (UniProt Q9H093)
ACVR1B (human) = ACVR1B (human) (UniProt P36896)
MAPKAPK5 (human) = MAPKAPK5 (human) (UniProt Q8IW41)
CDC42BPA (human) = CDC42BPA (human) (UniProt Q5VT25)
WEE1 (human) = WEE1 (human) (UniProt P30291)
FLT1 (human) = FLT1 (human) (UniProt P17948)
PHKG1 (human) = PHKG1 (human) (UniProt Q16816)
Chain of PHKG1 (human) (Q16816 whole entry, looked up): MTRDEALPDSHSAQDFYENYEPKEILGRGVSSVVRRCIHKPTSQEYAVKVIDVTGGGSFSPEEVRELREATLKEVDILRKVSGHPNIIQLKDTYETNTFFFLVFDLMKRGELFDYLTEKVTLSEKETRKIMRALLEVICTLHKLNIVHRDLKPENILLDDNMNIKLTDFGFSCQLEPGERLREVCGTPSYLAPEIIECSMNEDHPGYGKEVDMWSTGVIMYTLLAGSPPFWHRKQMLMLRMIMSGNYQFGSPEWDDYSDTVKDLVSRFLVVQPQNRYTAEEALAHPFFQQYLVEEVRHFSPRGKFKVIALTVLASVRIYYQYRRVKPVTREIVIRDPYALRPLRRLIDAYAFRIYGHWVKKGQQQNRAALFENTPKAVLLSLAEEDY

GSK3A (human) = GSK3A (human) (UniProt P49840)
MARK1 (human) = MARK1 (human) (UniProt Q9P0L2)
CAMK1 (human) = CAMK1 (human) (UniProt Q14012)
NTRK3 (human) = NTRK3 (human) (UniProt Q16288)
CSNK1G3 (human) = CSNK1G3 (human) (UniProt Q9Y6M4)
PNCK (human) = PNCK (human) (UniProt Q6P2M8)
PRKCH (human) = PRKCH (human) (UniProt P24723)
CSK (human) = CSK (human) (UniProt P41240)
MAP3K14 (human) = MAP3K14 (human) (UniProt Q99558)
DMPK (human) = DMPK (human) (UniProt Q09013)
PAK2 (human) = PAK2 (human) (UniProt Q13177)
MERTK (human) = MERTK (human) (UniProt Q12866)
FGFR3 (human) = FGFR3 (human) (UniProt P22607)
STK3 (human) = STK3 (human) (UniProt Q13188)
SRPK3 (human) = SRPK3 (human) (UniProt Q9UPE1)
CAMK2D (human) = CAMK2D (human) (UniProt Q13557)
PRKACA (human) = PRKACA (human) (UniProt P17612)
DAPK1 (human) = DAPK1 (human) (UniProt P53355)
PTK2B (human) = PTK2B (human) (UniProt Q14289)
TEC (human) = TEC (human) (UniProt P42680)
EPHA4 (human) = EPHA4 (human) (UniProt P54764)
PTK2 (human) = PTK2 (human) (UniProt Q05397)
[1] = molecular target: JAK1 JH1 catalytic (human) (UniProt P23458)
Chain of JAK1 JH1 catalytic (human) (P23458 whole entry, looked up): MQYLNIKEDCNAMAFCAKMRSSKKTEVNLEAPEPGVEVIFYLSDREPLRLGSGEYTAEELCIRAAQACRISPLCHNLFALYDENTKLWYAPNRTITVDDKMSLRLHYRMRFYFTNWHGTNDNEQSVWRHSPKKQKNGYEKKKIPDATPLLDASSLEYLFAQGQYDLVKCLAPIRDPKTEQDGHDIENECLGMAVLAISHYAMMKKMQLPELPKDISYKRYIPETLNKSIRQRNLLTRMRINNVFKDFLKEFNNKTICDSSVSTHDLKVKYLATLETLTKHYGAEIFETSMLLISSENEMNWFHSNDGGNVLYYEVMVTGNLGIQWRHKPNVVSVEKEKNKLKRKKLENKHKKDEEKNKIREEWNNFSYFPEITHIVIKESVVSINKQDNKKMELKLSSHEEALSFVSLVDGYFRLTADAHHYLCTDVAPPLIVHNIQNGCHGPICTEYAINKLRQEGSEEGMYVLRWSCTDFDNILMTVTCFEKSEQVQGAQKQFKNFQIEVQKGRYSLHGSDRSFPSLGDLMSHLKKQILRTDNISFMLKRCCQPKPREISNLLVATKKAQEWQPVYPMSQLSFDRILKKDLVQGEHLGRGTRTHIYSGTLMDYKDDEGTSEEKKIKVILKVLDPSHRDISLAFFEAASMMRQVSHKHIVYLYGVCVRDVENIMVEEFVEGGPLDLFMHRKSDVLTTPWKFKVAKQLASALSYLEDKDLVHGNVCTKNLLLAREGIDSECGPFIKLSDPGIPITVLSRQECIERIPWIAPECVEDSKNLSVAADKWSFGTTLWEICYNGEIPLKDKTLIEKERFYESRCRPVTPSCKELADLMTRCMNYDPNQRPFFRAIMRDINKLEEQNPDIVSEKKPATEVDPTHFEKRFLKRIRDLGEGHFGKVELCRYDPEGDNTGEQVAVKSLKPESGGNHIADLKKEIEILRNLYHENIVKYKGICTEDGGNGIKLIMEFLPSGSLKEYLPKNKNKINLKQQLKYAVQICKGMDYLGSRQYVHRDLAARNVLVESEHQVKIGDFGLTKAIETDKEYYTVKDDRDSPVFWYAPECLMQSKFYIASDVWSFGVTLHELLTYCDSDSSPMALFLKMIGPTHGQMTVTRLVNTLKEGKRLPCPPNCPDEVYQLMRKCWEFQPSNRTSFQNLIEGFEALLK

DYRK2 (human) = DYRK2 (human) (UniProt Q92630)
Chain of DYRK2 (human) (Q92630 whole entry, looked up): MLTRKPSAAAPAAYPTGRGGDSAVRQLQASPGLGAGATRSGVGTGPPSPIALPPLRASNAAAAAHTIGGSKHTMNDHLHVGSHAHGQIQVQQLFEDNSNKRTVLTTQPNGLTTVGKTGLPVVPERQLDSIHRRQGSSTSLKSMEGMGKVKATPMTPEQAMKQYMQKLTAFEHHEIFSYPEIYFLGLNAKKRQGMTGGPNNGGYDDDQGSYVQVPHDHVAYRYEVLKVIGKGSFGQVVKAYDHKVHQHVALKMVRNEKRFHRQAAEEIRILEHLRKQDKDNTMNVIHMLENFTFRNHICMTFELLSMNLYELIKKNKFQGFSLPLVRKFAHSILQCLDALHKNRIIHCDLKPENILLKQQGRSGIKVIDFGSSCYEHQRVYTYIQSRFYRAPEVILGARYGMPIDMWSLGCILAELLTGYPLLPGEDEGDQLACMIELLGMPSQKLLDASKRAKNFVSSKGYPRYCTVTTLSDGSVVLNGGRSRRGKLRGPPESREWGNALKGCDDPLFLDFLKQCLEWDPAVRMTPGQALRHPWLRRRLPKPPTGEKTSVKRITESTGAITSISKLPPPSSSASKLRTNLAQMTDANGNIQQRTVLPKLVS

NUAK1 (human) = NUAK1 (human) (UniProt O60285)
CDK9 CCNT1 (human) = CDK9 CCNT1 (human) (UniProt P50750+O60563)
Chain of CDK9 CCNT1 (human) (O60563 whole entry, looked up): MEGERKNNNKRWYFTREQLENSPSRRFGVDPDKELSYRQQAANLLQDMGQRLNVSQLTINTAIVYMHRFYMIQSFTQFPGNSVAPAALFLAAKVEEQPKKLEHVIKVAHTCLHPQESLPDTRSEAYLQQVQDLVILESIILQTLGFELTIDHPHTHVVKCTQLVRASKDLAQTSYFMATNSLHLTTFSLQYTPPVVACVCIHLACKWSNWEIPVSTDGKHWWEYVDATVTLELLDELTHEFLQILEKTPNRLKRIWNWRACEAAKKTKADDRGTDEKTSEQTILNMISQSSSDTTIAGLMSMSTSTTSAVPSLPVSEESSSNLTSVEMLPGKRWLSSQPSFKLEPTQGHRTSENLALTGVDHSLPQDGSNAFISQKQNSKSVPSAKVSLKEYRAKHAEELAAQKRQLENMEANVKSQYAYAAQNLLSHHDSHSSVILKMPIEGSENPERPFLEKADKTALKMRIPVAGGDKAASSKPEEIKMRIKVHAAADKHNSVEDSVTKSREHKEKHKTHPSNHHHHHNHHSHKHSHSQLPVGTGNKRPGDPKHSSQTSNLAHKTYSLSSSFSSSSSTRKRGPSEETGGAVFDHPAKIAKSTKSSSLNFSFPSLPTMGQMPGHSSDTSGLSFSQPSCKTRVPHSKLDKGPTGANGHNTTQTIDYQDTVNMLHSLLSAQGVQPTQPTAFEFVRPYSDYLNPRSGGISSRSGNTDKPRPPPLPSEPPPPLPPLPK
Chain of CDK9 CCNT1 (human) (P50750 whole entry, looked up): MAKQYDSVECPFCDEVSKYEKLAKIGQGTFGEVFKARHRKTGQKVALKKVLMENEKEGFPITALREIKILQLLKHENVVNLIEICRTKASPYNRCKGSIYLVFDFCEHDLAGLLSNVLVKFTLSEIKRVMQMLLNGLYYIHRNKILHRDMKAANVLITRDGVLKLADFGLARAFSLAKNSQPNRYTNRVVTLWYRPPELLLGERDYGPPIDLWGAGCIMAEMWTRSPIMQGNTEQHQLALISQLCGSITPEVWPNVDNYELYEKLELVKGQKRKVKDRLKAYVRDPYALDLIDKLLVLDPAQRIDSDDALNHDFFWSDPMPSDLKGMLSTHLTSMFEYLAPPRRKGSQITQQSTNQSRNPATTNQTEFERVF

TSSK2 (human) = TSSK2 (human) (UniProt Q96PF2)

Chain of CDK7 CCNH MNAT1 (human) (P50613 whole entry, looked up): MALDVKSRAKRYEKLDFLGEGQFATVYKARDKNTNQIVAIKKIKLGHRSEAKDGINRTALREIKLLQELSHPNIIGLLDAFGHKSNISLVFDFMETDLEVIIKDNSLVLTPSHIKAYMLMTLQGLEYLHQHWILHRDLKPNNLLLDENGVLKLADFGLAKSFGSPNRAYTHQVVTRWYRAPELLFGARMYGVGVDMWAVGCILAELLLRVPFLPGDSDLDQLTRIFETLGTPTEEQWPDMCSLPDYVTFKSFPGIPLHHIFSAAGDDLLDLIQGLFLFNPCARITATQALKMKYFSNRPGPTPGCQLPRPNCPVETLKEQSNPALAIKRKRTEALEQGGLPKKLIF
Chain of CDK7 CCNH MNAT1 (human) (P51946 whole entry, looked up): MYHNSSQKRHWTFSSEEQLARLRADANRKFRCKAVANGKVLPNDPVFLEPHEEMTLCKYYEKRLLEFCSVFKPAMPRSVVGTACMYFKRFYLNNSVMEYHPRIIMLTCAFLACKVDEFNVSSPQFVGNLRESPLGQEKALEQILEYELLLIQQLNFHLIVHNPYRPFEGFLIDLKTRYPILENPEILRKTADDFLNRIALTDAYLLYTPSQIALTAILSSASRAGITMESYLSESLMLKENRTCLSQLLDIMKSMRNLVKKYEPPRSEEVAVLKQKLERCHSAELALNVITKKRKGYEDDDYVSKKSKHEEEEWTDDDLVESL
Chain of CDK7 CCNH MNAT1 (human) (P51948 whole entry, looked up): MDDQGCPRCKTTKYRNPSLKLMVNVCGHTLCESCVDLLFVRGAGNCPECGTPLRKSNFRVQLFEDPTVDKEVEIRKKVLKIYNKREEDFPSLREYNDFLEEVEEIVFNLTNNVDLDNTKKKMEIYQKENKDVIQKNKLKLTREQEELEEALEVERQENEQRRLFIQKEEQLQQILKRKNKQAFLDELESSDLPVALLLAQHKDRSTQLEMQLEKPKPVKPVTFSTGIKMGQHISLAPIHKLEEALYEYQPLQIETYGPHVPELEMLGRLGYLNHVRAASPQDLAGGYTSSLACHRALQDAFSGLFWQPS

Question: With `Cc1cc2ncc(-c3ccccc3)nc2cc1C` as the compound, how does the residual activity (CDK7 CCNH MNAT1 (human)) read?
Answer: The residual activity was 98.5%.

Question: And the residual activity (MAP3K8 (human))?
Answer: The residual activity was 106%.

Question: And the residual activity (CDK9 CCNK (human))?
Answer: Its residual activity is 101%.

Question: And the residual activity (LCK (human))?
Answer: The residual activity was 99.5%.

Question: And the residual activity (PAK3 (human))?
Answer: The residual activity was 96.2%.

Question: What about the residual activity (PKN1 (human)) of the same compound?
Answer: Its residual activity is 92.5%.

Question: And the residual activity (PDGFRA (human))?
Answer: The residual activity was 95.4%.

Question: What about the residual activity (LYN (human)) of the same compound?
Answer: The residual activity was 100% and 98.2%.

Question: What about the residual activity (NUAK2 (human)) of the same compound?
Answer: The residual activity was 124%.

Question: And the residual activity (ACVR1B (human))?
Answer: The residual activity was 97.7%.

Question: What about the residual activity (MAPKAPK5 (human)) of the same compound?
Answer: Its residual activity is 95.1%.

Question: What about the residual activity (CDC42BPA (human)) of the same compound?
Answer: Its residual activity is 81.2%.

Question: What about the residual activity (WEE1 (human)) of the same compound?
Answer: Its residual activity is 105%.

Question: What about the residual activity (FLT1 (human)) of the same compound?
Answer: Its residual activity is 85.2%.

Question: What about the residual activity (PHKG1 (human)) of the same compound?
Answer: The residual activity was 97.4%.

Question: What about the residual activity (GSK3A (human)) of the same compound?
Answer: The residual activity was 104%.

Question: And the residual activity (MARK1 (human))?
Answer: The residual activity was 106%.

Question: What about the residual activity (CAMK1 (human)) of the same compound?
Answer: Its residual activity is 96.2%.

Question: What about the residual activity (NTRK3 (human)) of the same compound?
Answer: Its residual activity is 88.2%.

Question: And the residual activity (CSNK1G3 (human))?
Answer: Its residual activity is 99%.

Question: What about the residual activity (PNCK (human)) of the same compound?
Answer: Its residual activity is 96.3%.

Question: What about the residual activity (PRKCH (human)) of the same compound?
Answer: Its residual activity is 100%.

Question: What about the residual activity (CSK (human)) of the same compound?
Answer: Its residual activity is 96.5%.

Question: And the residual activity (MAP3K14 (human))?
Answer: The residual activity was 112%.

Question: And the residual activity (DMPK (human))?
Answer: The residual activity was 102%.

Question: And the residual activity (PAK2 (human))?
Answer: The residual activity was 99.3%.

Question: What about the residual activity (MERTK (human)) of the same compound?
Answer: The residual activity was 81.4%.

Question: And the residual activity (FGFR3 (human))?
Answer: Its residual activity is 98%.

Question: And the residual activity (STK3 (human))?
Answer: Its residual activity is 98.9%.

Question: What about the residual activity (SRPK3 (human)) of the same compound?
Answer: The residual activity was 91.4%.

Question: And the residual activity (CAMK2D (human))?
Answer: The residual activity was 88.1%.

Question: What about the residual activity (PRKACA (human)) of the same compound?
Answer: The residual activity was 108%.

Question: What about the residual activity (DAPK1 (human)) of the same compound?
Answer: Its residual activity is 88.4%.

Question: What about the residual activity (PTK2B (human)) of the same compound?
Answer: Its residual activity is 92.1%.

Question: What about the residual activity (TEC (human)) of the same compound?
Answer: Its residual activity is 98.1%.

Question: And the residual activity (EPHA4 (human))?
Answer: The residual activity was 95.4%.

Question: What about the residual activity (PTK2 (human)) of the same compound?
Answer: The residual activity was 92.5%.

Question: And the residual activity [1]?
Answer: Its residual activity is 103%.

Question: And the residual activity (DYRK2 (human))?
Answer: Its residual activity is 95.9%.

Question: And the residual activity (NUAK1 (human))?
Answer: The residual activity was 92.3%.

Question: And the residual activity (CDK9 CCNT1 (human))?
Answer: Its residual activity is 93.9%.

Question: And the residual activity (TSSK2 (human))?
Answer: Its residual activity is 87.5%.

Question: Which residual activity (CDK7 CCNH MNAT1 (human)) does the source give for `O=C(Nc1ccc(Cl)cc1)c1ccccc1NCc1ccncc1` here?
Answer: Its residual activity is 95.1%.

Question: And the residual activity (MAP3K8 (human))?
Answer: The residual activity was 105%.

Question: What about the residual activity (CDK9 CCNK (human)) of the same compound?
Answer: Its residual activity is 95.5%.

Question: And the residual activity (LCK (human))?
Answer: Its residual activity is 93.3%.

Question: And the residual activity (PAK3 (human))?
Answer: The residual activity was 95.5%.

Question: And the residual activity (PKN1 (human))?
Answer: Its residual activity is 95.2%.

Question: And the residual activity (PDGFRA (human))?
Answer: The residual activity was 81.3%.

Question: And the residual activity (LYN (human))?
Answer: The residual activity was 75.1% and 93.7%.

Question: What about the residual activity (NUAK2 (human)) of the same compound?
Answer: The residual activity was 137%.

Question: What about the residual activity (ACVR1B (human)) of the same compound?
Answer: The residual activity was 95.8%.

Question: And the residual activity (MAPKAPK5 (human))?
Answer: Its residual activity is 88.7%.

Question: And the residual activity (CDC42BPA (human))?
Answer: Its residual activity is 90.5%.

Question: What about the residual activity (WEE1 (human)) of the same compound?
Answer: The residual activity was 90.1%.

Question: And the residual activity (FLT1 (human))?
Answer: The residual activity was 24.8%.

Question: And the residual activity (PHKG1 (human))?
Answer: The residual activity was 94.2%.

Question: And the residual activity (GSK3A (human))?
Answer: The residual activity was 80.1%.

Question: What about the residual activity (MARK1 (human)) of the same compound?
Answer: The residual activity was 94.7%.

Question: What about the residual activity (CAMK1 (human)) of the same compound?
Answer: The residual activity was 103%.

Question: And the residual activity (NTRK3 (human))?
Answer: The residual activity was 97%.

Question: And the residual activity (CSNK1G3 (human))?
Answer: The residual activity was 105%.

Question: What about the residual activity (PNCK (human)) of the same compound?
Answer: Its residual activity is 94.8%.

Question: And the residual activity (PRKCH (human))?
Answer: Its residual activity is 96.2%.

Question: And the residual activity (CSK (human))?
Answer: The residual activity was 101%.

Question: What about the residual activity (MAP3K14 (human)) of the same compound?
Answer: Its residual activity is 114%.

Question: What about the residual activity (DMPK (human)) of the same compound?
Answer: The residual activity was 103%.

Question: What about the residual activity (PAK2 (human)) of the same compound?
Answer: The residual activity was 91%.

Question: What about the residual activity (MERTK (human)) of the same compound?
Answer: The residual activity was 79%.

Question: And the residual activity (FGFR3 (human))?
Answer: The residual activity was 92.2%.

Question: And the residual activity (STK3 (human))?
Answer: Its residual activity is 94.2%.

Question: And the residual activity (SRPK3 (human))?
Answer: The residual activity was 100%.

Question: And the residual activity (CAMK2D (human))?
Answer: Its residual activity is 101%.

Question: What about the residual activity (PRKACA (human)) of the same compound?
Answer: The residual activity was 97.1%.

Question: And the residual activity (DAPK1 (human))?
Answer: Its residual activity is 99.9%.

Question: And the residual activity (PTK2B (human))?
Answer: Its residual activity is 89.3%.

Question: And the residual activity (TEC (human))?
Answer: Its residual activity is 134%.

Question: And the residual activity (EPHA4 (human))?
Answer: Its residual activity is 96.5%.

Question: What about the residual activity (PTK2 (human)) of the same compound?
Answer: The residual activity was 95.7%.

Question: And the residual activity [1]?
Answer: Its residual activity is 91.8%.

Question: And the residual activity (DYRK2 (human))?
Answer: Its residual activity is 96%.

Question: And the residual activity (NUAK1 (human))?
Answer: The residual activity was 96.5%.

Question: And the residual activity (CDK9 CCNT1 (human))?
Answer: The residual activity was 81.9%.

Question: What about the residual activity (TSSK2 (human)) of the same compound?
Answer: Its residual activity is 86.3%.
